The values that follow come from patent US20170027172A1, “USE OF SUBSTITUTE OXO TETRAHYDROQUINOLINE SULFONAMIDES OR SALTS THEREOF FOR RAISING STRESS TOLERANCE OF PLANTS” (BAYER CROPSCIENCE AKTIENGESELLSCHAFT, priority 2014, published 2017).

Test [1] concerns Triticum aestivum. In words: Drought stress greenhouse test Part B, visual scoring vs stressed control plants. The format is in vivo. As to conditions: efficacy range of 2-3 pots. On the procedure:
(§1) Seeds of monocotyledonous and dicotyledonous crop plants were sown in sandy loam in plastic pots, covered with soil or sand and cultivated in a greenhouse under good growth conditions. The trial plants were treated at the early leaf stage (BBCH10-BBCH13). To assure uniform water supply before commencement of stress, the potted plants were supplied with water by dam irrigation prior to substance application.
(§2) The inventive compounds formulated in the form of wettable powders (WP) were sprayed onto the green parts of the plants as an aqueous suspension at an equivalent water application rate of 600 l/ha with addition of 0.2% wetting agent (e.g. agrotin). Substance application was followed immediately by stress treatment of the plants.
(§3) Drought stress was induced by gradual drying out under the following conditions:
(§4) “Day”: 14 hours with illumination at 26-30° C. “Night”: 10 hours without illumination at 18-20° C.
(§5) The duration of the respective stress phases was guided mainly by the condition of the stressed control plants. It was ended (by re-irrigating and transfer to a greenhouse with good growth conditions) as soon as irreversible damage was observed on the stressed control plants.
The end of the stress phase was followed by an about 4-7-day recovery phase, during which the plants were once again kept under good growth conditions in a greenhouse. The duration of the recovery phase was guided mainly by when the trial plants had attained a state which enabled visual scoring of potential effects, and is therefore variable.
(§6) Once this juncture had been reached, the appearance of the plants treated with test substances was recorded in comparison to the stressed control plants by the following categories:
For each substance and dosage, 2-3 pots were treated and evaluated.
(§7) BRSNS=Brassica napus TRZAS=Triticum aestivum

Test [2] deals with T1, phosphatase ABI1 via the co-regulator RCAR11/PYR1 (Arabidopsis thaliana, UniProt O49686+P49597).
T1 sequence (O49686 1-191): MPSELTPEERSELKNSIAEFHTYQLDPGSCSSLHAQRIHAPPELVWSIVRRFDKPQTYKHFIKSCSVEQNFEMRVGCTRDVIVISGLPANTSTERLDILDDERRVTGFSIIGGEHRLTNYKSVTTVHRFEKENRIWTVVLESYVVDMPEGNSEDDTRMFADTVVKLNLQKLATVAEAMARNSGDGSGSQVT
T1 sequence (P49597 1-434): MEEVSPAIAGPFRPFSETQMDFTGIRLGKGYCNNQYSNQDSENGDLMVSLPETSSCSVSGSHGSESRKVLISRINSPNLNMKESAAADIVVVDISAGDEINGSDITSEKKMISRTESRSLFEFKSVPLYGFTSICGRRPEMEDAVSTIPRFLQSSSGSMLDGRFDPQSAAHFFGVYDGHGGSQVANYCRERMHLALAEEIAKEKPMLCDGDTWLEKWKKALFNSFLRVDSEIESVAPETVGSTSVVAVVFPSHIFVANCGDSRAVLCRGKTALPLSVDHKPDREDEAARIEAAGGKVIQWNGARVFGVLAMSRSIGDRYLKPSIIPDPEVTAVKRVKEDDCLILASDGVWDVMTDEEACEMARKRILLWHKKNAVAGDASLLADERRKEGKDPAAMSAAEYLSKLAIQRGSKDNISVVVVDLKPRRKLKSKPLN
Kind of test: In vitro inhibition of the phosphatase ABI1 via the co-regulator RCAR11/PYR1, MUP dephosphorylation. The format is biochemical. Further details: dose or concentration left out as unconfirmed. As to conditions: in a solution of DMSO and water; fluorescence at 460 nm. In outline: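 Arabidopsis ABI1 (0.15 μg/well) with RCAR11/PYR1 (0.30 μg/well) in Tris-HCl pH 8, NaCl, MnCl2, DTT, Tween20; MUP substrate, 20 min at 35 °C, fluorescence ex 340/em 460 nm. Compounds tested at 5 mM in DMSO/water, optionally pre-treated with porcine liver esterase; inhibition banded ≥90/70/50/30%.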

The test system of test [3] is Brassica napus. In words: Drought stress greenhouse test Part B, visual scoring vs stressed control plants. The format is in vivo. Details: key: 0: no effect; 10: slight positive effect; 20: clear positive effect; 30: strong positive effect. As to conditions: efficacy range of 2-3 pots. On the procedure:
as §1, §2, §3, §4
The duration of the respective stress phases was guided mainly by the condition of the stressed control plants. […]
as §6
For each substance and dosage, 2-3 pots were treated and evaluated. […]

For test [4], the system named is Brassica napus. In words: Drought stress greenhouse test Part A, visual scoring vs stressed control plants. The format is in vivo. Details: key: 0: no effect; 10: slight positive effect; 20: clear positive effect; 30: strong positive effect. As to conditions: spray application 250 g/ha, average score of 3 pots. On the procedure: as §1, §2, §3
(§8) “Day”: 14 hours with illumination at ˜26-30° C. “Night”: 10 hours without illumination at ˜18-20° C.
as §5
(§9) The end of the stress phase was followed by an about 4-7-day recovery phase, during which the plants were once again kept under good growth conditions in a greenhouse. The duration of the recovery phase was guided mainly by when the trial plants had attained a state which enabled visual scoring of potential effects, and was therefore variable.
as §6
(§10) In order to rule out any influence on the effects observed by any fungicidal or insecticidal action of the test compounds, it was additionally ensured that the tests proceeded without fungal infection or insect infestation.
(§11) In each test, for each crop and dosage, plants in 3 pots were treated and evaluated separately. The values reported in Tables A-1 to A-2 below for the effects obtained are averages from the scores obtained.
as §7

Test [5] concerns Triticum aestivum. The description is as above. The format is in vivo. Further details: key: 0: no effect; 10: slight positive effect; 20: clear positive effect; 30: strong positive effect. The settings on record: average score of 3 pots. On the procedure: as §1, §2, §3, §8, §5, §9, §6, §10, §11, §7
Test [6] relates to Brassica napus. Kind of test: Drought stress greenhouse test Part C, visual scoring vs stressed control plants. The format is in vivo. Further details: key: 0: no effect; 10: slight positive effect; 20: clear positive effect; 30: strong positive effect. The settings on record: spray application 250 g/ha, efficacy range of 3-4 pots. On the procedure: Seeds of monocotyledonous and dicotyledonous crop plants were sown in sandy loam in plastic or wood-fiber pots, covered with soil or sand and cultivated in a greenhouse under good growth conditions. The trial plants were treated at the early leaf stage (BBCH10-BBCH13). To assure uniform water supply before commencement of stress, the potted plants were supplied with water by dam irrigation prior to substance application. The inventive compounds were first formulated as wettable powders (WP) or dissolved in a solvent mixture. The further dilution was effected with water supplemented with 0.2% wetting agent (e.g. agrotin). The finished spray liquor was sprayed onto the green parts of the plant at an equivalent water application rate of 600 l/ha. Substance application was followed immediately by stress treatment of the plants. For this purpose, the wood-fiber pots were transferred in plastic inserts in order to prevent them from subsequently drying out too quickly. Drought stress was induced by gradual drying out under the following conditions: “Day”: 14 hours with illumination at 26-30° C. […] Once this juncture had been reached, the appearance of the plants treated with test substances was recorded in comparison to the stressed control plants by the following categories: [table] For each substance and dosage, 3-4 pots were treated and evaluated. […]

Turning to `O=C1CCc2cc(NS(=O)(=O)Cc3ccc(F)cc3)ccc2N1CC(F)F` [A1-158], the “Effect (TRZAS)” value in test [1] (spray application 250 g/ha) is 10-20. In addition, the ABI1 inhibition entry in test [2] was “+++ (90%>inhibition≧70%)”.

On to `N#CCN1C(=O)CCc2cc(NS(=O)(=O)Cc3ccc(Br)cc3)ccc21` [A16-172], for which the “Effect (BRSNS)” value in test [3] (spray application 25 g/ha) was 20. For the same compound, the “Effect (TRZAS)” value in test [1] (spray application 25 g/ha) is 10-20.

Consider `N#Cc1ccc(CS(=O)(=O)Nc2ccc3c(c2)CCC(=O)N3CC2CC2)cc1` [A19-181], for which the “Effect (TRZAS)” value in test [1] (spray application 250 g/ha) is 10-20. The ABI1 inhibition result in test [2] is “++++ (inhibition≧90%)”.

Take `O=C1CCc2cc(NS(=O)(=O)Cc3ccc(F)cc3)ccc2N1CC1CC1` [A19-158]: the “Effect (BRSNS)” value in test [4] came to 20. Also, the “Effect (TRZAS)” value in test [5] (spray application 25 g/ha) and in test [5] (spray application 250 g/ha) was 20-30 throughout. The ABI1 inhibition entry in test [2] is given as “++++ (inhibition≧90%)”.

Consider `O=C1CCc2cc(NS(=O)(=O)Cc3cc(F)cc(F)c3)ccc2N1CC1CC1` [A19-164], for which the “Effect (BRSNS)” value in test [3] (spray application 2.5 g/ha) is 20. Also, the ABI1 inhibition result in test [2] is recorded as “+++ (90%>inhibition≧70%)”.

As to `Cc1ccc(CS(=O)(=O)Nc2ccc3c(c2)CCC(=O)N3CC2CC2)cc1F` [A19-357, N-[1-(Cyclopropylmethyl)-2-oxo-1,2,3,4-tetrahydroquinolin-6-yl]-1-(3-fluoro-4-methylphenyl)methanesulfonamide], the “Effect (TRZAS)” value in test [1] (spray application 250 g/ha) is 10-20. In test [2], the ABI1 inhibition result is “++++ (inhibition≧90%)”.

As for `COCN1C(=O)CCc2cc(NS(=O)(=O)Cc3ccc(C(F)(F)F)cc3)ccc21` [A49-178], the “Effect (BRSNS)” value in test [6] was found to be 20. Also, the ABI1 inhibition entry in test [2] is recorded as “++++ (inhibition≧90%)”.

Take `O=C1CCc2cc(NS(=O)(=O)Cc3ccc(C(F)(F)F)cc3)ccc2N1CC1CC1` [A19-178]: the “Effect (BRSNS)” value in test [4] is listed as 20. In addition, the ABI1 inhibition entry in test [2] is on record as “++++ (inhibition≧90%)”.
